Test results: US7063946B2, “Methods, reagents, kits and apparatus for protein function analysis” (Meso Scale Technologies, LLC., priority 2001, dated 2006)

Tests used:
Test in all cases: Kinase inhibitor profiling, autophosphorylation
Assay type in all cases: biochemical
FGFR2 = biological target: T1, FGFR2 (Mus musculus, UniProt P21803)
T1 construct: specificity data for proteins generated from a library of eighteen full-length clones; host or cells: rabbit reticulocyte lysate, TnT coupled in vitro transcription/translation (cell-free)

SRC = biological target: T2, SRC (Mus musculus, UniProt P05480)
T2 construct: specificity data for proteins generated from a library of eighteen full-length clones; host or cells: rabbit reticulocyte lysate, TnT coupled transcription/translation

Fgfr4 = biological target: T3, Fgfr4 (Mus musculus, UniProt Q03142)
T3 construct: specificity data for proteins generated from a library of eighteen full-length clones; biotin on random lysines (biotin-Lys-tRNA); host or cells: rabbit reticulocyte lysate, coupled transcription/translation (TnT, Promega)

EphB4 = biological target: T4, EphB4 (Mus musculus, UniProt P54761)
T4 construct: specificity data for proteins generated from a library of eighteen full-length clones; host or cells: rabbit reticulocyte lysate, TnT coupled in vitro transcription/translation (cell-free)
T4 sequence (P54761 16-987): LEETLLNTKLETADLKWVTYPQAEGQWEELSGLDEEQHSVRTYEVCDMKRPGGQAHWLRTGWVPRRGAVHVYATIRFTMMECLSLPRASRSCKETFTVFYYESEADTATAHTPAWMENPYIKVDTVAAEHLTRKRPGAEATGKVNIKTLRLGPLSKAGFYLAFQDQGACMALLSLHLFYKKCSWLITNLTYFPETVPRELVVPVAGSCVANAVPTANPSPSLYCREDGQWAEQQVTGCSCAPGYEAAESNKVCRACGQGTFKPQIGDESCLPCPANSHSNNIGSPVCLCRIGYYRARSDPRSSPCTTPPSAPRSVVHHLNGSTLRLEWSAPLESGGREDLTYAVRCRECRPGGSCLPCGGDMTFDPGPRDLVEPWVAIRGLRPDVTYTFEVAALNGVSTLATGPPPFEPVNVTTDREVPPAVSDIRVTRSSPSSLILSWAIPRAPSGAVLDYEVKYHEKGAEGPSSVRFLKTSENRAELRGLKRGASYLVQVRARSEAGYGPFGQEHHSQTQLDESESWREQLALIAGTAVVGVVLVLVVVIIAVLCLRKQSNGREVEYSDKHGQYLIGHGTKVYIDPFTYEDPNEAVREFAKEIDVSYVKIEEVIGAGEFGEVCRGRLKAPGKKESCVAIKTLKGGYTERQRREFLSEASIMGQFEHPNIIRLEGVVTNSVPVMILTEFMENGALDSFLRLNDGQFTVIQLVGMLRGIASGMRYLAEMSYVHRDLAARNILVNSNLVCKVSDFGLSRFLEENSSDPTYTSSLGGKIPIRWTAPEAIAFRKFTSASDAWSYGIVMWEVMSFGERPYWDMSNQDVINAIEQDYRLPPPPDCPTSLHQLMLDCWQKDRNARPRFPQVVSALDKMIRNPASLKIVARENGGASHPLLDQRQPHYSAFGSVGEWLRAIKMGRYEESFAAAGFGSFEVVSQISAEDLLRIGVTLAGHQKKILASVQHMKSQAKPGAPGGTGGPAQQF

FGFR1 = biological target: T5, FGFR1 (Homo sapiens, UniProt P11362)
T5 construct: specificity data for proteins generated from a library of eighteen full-length clones; host or cells: rabbit reticulocyte lysate, TnT coupled transcription/translation

CSK = biological target: T6, CSK (Homo sapiens, UniProt P41240)
T6 construct: specificity data for proteins generated from a library of eighteen full-length clones; host or cells: rabbit reticulocyte lysate, TnT coupled in vitro transcription/translation (cell-free)

FRK = test system: FRK

T6 sequence (P41240 whole entry): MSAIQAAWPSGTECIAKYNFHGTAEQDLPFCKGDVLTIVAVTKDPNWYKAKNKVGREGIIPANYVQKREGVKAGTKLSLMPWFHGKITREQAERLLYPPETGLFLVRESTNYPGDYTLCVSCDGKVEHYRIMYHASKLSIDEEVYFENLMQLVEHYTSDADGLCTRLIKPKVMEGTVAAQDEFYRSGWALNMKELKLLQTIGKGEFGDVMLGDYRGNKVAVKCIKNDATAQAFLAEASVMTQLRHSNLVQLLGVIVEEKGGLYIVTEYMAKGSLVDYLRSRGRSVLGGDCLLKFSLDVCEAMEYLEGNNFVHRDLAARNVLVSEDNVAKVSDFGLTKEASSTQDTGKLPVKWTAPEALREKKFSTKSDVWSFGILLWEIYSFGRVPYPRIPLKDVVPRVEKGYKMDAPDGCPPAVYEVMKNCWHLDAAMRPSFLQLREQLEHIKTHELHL
T5 sequence (P11362 22-822): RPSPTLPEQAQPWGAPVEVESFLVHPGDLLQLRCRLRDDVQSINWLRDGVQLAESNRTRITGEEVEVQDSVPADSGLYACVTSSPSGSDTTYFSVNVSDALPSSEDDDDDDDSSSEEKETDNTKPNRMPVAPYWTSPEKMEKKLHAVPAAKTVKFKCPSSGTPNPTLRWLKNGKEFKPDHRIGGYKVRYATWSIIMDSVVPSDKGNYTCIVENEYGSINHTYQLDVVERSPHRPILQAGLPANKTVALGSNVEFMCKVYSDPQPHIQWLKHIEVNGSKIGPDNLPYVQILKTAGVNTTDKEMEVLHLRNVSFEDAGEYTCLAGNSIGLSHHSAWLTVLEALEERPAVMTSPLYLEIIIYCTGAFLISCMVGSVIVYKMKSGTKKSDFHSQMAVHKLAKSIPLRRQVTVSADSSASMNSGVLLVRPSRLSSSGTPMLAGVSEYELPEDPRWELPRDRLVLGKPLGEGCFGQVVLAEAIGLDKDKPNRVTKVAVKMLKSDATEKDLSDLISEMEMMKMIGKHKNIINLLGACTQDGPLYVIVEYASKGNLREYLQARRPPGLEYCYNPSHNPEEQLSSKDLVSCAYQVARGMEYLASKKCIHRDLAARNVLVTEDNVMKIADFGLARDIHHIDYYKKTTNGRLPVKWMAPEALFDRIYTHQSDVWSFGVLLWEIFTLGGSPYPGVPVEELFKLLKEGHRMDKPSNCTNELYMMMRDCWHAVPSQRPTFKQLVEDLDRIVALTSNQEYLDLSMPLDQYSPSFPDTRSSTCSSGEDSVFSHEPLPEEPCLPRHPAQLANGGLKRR
T3 sequence (Q03142 17-799): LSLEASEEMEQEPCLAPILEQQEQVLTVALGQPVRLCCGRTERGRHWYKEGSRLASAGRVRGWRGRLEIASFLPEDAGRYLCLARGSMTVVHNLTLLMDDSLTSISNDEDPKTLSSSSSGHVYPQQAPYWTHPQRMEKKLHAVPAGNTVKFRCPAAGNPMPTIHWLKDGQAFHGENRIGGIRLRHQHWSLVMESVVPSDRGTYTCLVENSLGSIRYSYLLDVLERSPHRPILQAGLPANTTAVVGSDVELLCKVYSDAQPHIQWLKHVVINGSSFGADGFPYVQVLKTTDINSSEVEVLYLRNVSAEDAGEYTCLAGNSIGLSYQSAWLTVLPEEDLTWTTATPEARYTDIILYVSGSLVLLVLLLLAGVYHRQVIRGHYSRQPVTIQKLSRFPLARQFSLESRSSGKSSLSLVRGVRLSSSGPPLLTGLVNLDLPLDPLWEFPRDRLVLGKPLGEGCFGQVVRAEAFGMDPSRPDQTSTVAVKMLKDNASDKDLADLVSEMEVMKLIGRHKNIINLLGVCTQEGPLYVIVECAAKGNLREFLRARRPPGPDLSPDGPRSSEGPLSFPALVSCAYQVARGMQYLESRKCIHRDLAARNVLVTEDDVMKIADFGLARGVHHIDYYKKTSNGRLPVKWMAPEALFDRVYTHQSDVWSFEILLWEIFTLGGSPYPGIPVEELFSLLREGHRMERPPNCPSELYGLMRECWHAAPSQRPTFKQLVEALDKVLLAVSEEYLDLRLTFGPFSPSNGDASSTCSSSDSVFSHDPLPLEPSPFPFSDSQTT
T1 sequence (P21803 22-821): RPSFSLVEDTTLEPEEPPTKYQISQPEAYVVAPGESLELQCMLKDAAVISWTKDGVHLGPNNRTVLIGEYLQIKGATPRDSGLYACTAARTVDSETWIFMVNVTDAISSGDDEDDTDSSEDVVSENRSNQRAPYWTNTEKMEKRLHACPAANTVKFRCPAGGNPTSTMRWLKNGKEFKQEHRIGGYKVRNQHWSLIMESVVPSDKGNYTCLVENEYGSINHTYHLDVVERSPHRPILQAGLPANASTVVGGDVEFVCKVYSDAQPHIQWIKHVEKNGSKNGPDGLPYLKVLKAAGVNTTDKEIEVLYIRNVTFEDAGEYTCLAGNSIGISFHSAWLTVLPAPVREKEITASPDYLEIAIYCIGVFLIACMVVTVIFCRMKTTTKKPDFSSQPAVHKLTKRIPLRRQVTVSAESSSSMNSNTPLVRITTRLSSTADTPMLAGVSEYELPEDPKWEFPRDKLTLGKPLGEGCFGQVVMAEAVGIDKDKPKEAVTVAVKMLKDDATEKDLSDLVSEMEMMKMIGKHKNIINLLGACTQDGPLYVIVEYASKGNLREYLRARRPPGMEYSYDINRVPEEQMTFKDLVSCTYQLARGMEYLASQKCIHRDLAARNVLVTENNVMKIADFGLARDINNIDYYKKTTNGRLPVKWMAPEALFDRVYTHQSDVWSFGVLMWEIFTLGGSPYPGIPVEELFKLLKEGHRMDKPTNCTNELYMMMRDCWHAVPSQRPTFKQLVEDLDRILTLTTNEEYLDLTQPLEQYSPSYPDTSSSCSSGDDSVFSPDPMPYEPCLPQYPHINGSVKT

In the case of `COC(=O)c1ccc(NCc2cc(O)ccc2O)cc1` [AG-957], the “Inhibition specificity towards Autophosphorylation at 10X IC50, FGFR2” value (FGFR2) was “L (low inhibition (“L”=between 50–75% of the activity remaining))”, the “Inhibition specificity towards Autophosphorylation at 10X IC50, Src” value (SRC) was “L (low inhibition (“L”=between 50–75% of the activity remaining))” and the “Inhibition specificity towards Autophosphorylation at 10X IC50, Fgfr4” value (Fgfr4) was “L (low inhibition (“L”=between 50–75% of the activity remaining))”. The “Inhibition specificity towards Autophosphorylation at 10X IC50, Ephb4” value (EphB4) was “L (low inhibition (“L”=between 50–75% of the activity remaining))”, the “Inhibition specificity towards Autophosphorylation at 10X IC50, FGFR1” value (FGFR1) was “L (low inhibition (“L”=between 50–75% of the activity remaining))” and the “Inhibition specificity towards Autophosphorylation at 10X IC50, CSK” value (CSK) was “L (low inhibition (“L”=between 50–75% of the activity remaining))”. The “Inhibition specificity towards Autophosphorylation at 10X IC50, FRK” value (FRK) was “L (low inhibition (“L”=between 50–75% of the activity remaining))”.
In the case of `CC(C)(C)c1cc(C=C(C#N)C#N)cc(Br)c1O` [AG-1024], the “Inhibition specificity towards Autophosphorylation at 10X IC50, FGFR2” value (FGFR2) was “L (low inhibition (“L”=between 50–75% of the activity remaining))” and the “Inhibition specificity towards Autophosphorylation at 10X IC50, Fgfr4” value (Fgfr4) was “L (low inhibition (“L”=between 50–75% of the activity remaining))”.
With `Cc1cc2ncc(-c3ccc(O)c(O)c3)nc2cc1C` [AG-1433] the “Inhibition specificity towards Autophosphorylation at 10X IC50, FGFR2” value (FGFR2) was “H (high inhibition (“H”=less than 25% of the activity remaining))”, the “Inhibition specificity towards Autophosphorylation at 10X IC50, Src” value (SRC) was “H (high inhibition (“H”=less than 25% of the activity remaining))” and the “Inhibition specificity towards Autophosphorylation at 10X IC50, Fgfr4” value (Fgfr4) was “H (high inhibition (“H”=less than 25% of the activity remaining))”. For the same compound, the “Inhibition specificity towards Autophosphorylation at 10X IC50, Ephb4” value (EphB4) was “H (high inhibition (“H”=less than 25% of the activity remaining))”, the “Inhibition specificity towards Autophosphorylation at 10X IC50, FGFR1” value (FGFR1) was “H (high inhibition (“H”=less than 25% of the activity remaining))” and the “Inhibition specificity towards Autophosphorylation at 10X IC50, CSK” value (CSK) was “H (high inhibition (“H”=less than 25% of the activity remaining))”. For the same compound, the “Inhibition specificity towards Autophosphorylation at 10X IC50, FRK” value (FRK) was “H (high inhibition (“H”=less than 25% of the activity remaining))”.
For `COc1c(C=O)c(O)cc2c1C(=O)c1ccccc1C2=O` [Damnacanthal], the “Inhibition specificity towards Autophosphorylation at 10X IC50, FGFR2” value (FGFR2) was “M (medium inhibition (“M”=between 25 to 50% of the activity remaining))”, the “Inhibition specificity towards Autophosphorylation at 10X IC50, Src” value (SRC) was “H (high inhibition (“H”=less than 25% of the activity remaining))” and the “Inhibition specificity towards Autophosphorylation at 10X IC50, Fgfr4” value (Fgfr4) was “H (high inhibition (“H”=less than 25% of the activity remaining))”. The “Inhibition specificity towards Autophosphorylation at 10X IC50, Ephb4” value (EphB4) was “H (high inhibition (“H”=less than 25% of the activity remaining))”, the “Inhibition specificity towards Autophosphorylation at 10X IC50, FGFR1” value (FGFR1) was “M (medium inhibition (“M”=between 25 to 50% of the activity remaining))” and the “Inhibition specificity towards Autophosphorylation at 10X IC50, CSK” value (CSK) was “M (medium inhibition (“M”=between 25 to 50% of the activity remaining))”. The “Inhibition specificity towards Autophosphorylation at 10X IC50, FRK” value (FRK) was “H (high inhibition (“H”=less than 25% of the activity remaining))”.
For `Cc1ccc(-c2nn(C(C)(C)C)c3ncnc(N)c23)cc1` [PP1], the “Inhibition specificity towards Autophosphorylation at 10X IC50, Src” value (SRC) was “L (low inhibition (“L”=between 50–75% of the activity remaining))”.
`COc1cc2ncnc(Nc3ccc(Cl)cc3F)c2cc1OC` [VEGFR inhibitor] was tested, and the “Inhibition specificity towards Autophosphorylation at 10X IC50, Ephb4” value (EphB4) was “L (low inhibition (“L”=between 50–75% of the activity remaining))”.
In the case of Erbstatin analog, the “Inhibition specificity towards Autophosphorylation at 10X IC50, FGFR2” value (FGFR2) was “L (low inhibition (“L”=between 50–75% of the activity remaining))”, the “Inhibition specificity towards Autophosphorylation at 10X IC50, Src” value (SRC) was “L (low inhibition (“L”=between 50–75% of the activity remaining))” and the “Inhibition specificity towards Autophosphorylation at 10X IC50, Ephb4” value (EphB4) was “L (low inhibition (“L”=between 50–75% of the activity remaining))”.
